Values after ≈ are worked out from the molar mass of the structure shown.
How the values were obtained:
Type in all cases: functional
Staphylococcus aureus = assay: Antibacterial activity against Staphylococcus aureus CP011526.1 assessed as reduction in cell viability after 24 hrs by microdilution method
Pseudomonas aeruginosa = assay: Antibacterial activity against Pseudomonas aeruginosa NR-117678.1 assessed as reduction in cell viability after 24 hrs by microdilution method
Bacillus licheniformis = assay: Antibacterial activity against Bacillus licheniformis KX785171.1 assessed as reduction in cell viability after 24 hrs by microdilution method
[1] = Antibacterial activity against Escherichia fergusonii CU928158.2 assessed as reduction in cell viability after 24 hrs by microdilution method
Enterobacter hormaechei = assay: Antibacterial activity against Enterobacter xiangfangensis CP017183.1 assessed as reduction in cell viability after 24 hrs by microdilution method; settings: subsp. xiangfangensis CP017183.1

SMILES | MIC (Staphylococcus aureus) [µg/mL] | MIC (Pseudomonas aeruginosa) [µg/mL] | MIC (Bacillus licheniformis) [µg/mL] | MIC [1] [µg/mL] | MIC (Enterobacter hormaechei) [µg/mL]
COc1cc(O)cc(C2=COC(C(=O)O)=C[C@H]2C)c1 | > 25 | 18.4 (≈ 70.2 µM) | 21.6 (≈ 82.4 µM) | 13.2 (≈ 50.3 µM) | 15.8 (≈ 60.2 µM)
COc1cc(O)c2c3c(c(C)cc(C(=O)O)c13)[C@H](OC)OC2=O | 6.3 (≈ 19.8 µM) | 4.7 (≈ 14.8 µM) | 3.8 (≈ 11.9 µM) | 11.2 (≈ 35.2 µM) | 7.8 (≈ 24.5 µM)
COc1cc(O)c(C(=O)O)c(C2=COC(C(=O)O)=C[C@H]2C)c1 | 10.3 (≈ 33.6 µM) | 5.2 (≈ 17 µM) | 9.7 (≈ 31.7 µM) | 7.8 (≈ 25.5 µM) | 3.7 (≈ 12.1 µM)
COc1cc(O)c(C(=O)O)c(C2=COC(C(=O)O)=C[C@H]2C)c1C(=O)O | 6.8 (≈ 19.4 µM) | 1.4 (≈ 4 µM) | 8.4 (≈ 24 µM) | 2.7 (≈ 7.71 µM) | 0.9 (≈ 2.57 µM)
NCC[C@H](O)C(=O)N[C@@H]1C[C@H](N)[C@@H](O[C@H]2O[C@H](CN)[C@@H](O)[C@H](O)[C@H]2O)[C@H](O)[C@H]1O[C@H]1O[C@H](CO)[C@@H](O)[C@H](N)[C@H]1O [AMIKACIN] | 0.5 (≈ 0.854 µM) | 0.8 (≈ 1.37 µM) | 0.3 (≈ 0.512 µM) | 0.4 (≈ 0.683 µM) | 0.2 (≈ 0.342 µM)
O=c1cc(CO)occ1O [KOJIC ACID] | 9.5 (≈ 66.8 µM) | 2.9 (≈ 20.4 µM) | 14.8 (≈ 104 µM) | 3.5 (≈ 24.6 µM) | 1.6 (≈ 11.3 µM)

— ChEMBL document CHEMBL4673348, “Penipyranicins A-C: Antibacterial Methylpyran Polyketides from a Hydrothermal Spring Sediment Penicillium sp” (2020)
